From BindingDB's records for doi:10.1021/jm7012858 (Wyeth Research, 2008) come the findings set out here.

For the first assay, the target named is Phosphatidylinositol 3-kinase regulatory subunit alpha/4,5-bisphosphate 3-kinase catalytic subunit alpha isoform (Homo sapiens, UniProt P42336). The experiment in a line: PI3K Inhibition Assay.
Phosphatidylinositol 3-kinase regulatory subunit alpha/4,5-bisphosphate 3-kinase catalytic subunit alpha isoform, sequence (P27986 whole entry, canonical isoform): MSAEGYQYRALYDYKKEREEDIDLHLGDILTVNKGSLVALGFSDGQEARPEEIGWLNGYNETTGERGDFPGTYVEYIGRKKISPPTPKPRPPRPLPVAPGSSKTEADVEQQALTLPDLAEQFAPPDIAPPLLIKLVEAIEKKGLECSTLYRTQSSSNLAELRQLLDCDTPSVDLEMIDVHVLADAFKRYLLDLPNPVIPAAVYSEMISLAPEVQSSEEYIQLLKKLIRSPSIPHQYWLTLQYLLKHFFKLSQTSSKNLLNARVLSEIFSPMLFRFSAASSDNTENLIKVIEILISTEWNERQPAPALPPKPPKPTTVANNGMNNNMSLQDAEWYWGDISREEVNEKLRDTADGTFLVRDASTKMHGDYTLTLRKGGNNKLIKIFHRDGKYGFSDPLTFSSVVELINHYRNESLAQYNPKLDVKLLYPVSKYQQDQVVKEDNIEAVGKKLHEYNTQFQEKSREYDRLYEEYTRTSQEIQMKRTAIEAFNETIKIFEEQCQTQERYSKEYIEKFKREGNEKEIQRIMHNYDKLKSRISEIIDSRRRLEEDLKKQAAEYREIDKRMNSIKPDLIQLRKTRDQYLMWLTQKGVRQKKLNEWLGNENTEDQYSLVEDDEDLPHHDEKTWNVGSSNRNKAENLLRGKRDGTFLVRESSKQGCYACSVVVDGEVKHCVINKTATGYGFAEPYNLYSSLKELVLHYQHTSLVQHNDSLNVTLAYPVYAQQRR
Phosphatidylinositol 3-kinase regulatory subunit alpha/4,5-bisphosphate 3-kinase catalytic subunit alpha isoform, sequence (P42336 whole entry, canonical isoform): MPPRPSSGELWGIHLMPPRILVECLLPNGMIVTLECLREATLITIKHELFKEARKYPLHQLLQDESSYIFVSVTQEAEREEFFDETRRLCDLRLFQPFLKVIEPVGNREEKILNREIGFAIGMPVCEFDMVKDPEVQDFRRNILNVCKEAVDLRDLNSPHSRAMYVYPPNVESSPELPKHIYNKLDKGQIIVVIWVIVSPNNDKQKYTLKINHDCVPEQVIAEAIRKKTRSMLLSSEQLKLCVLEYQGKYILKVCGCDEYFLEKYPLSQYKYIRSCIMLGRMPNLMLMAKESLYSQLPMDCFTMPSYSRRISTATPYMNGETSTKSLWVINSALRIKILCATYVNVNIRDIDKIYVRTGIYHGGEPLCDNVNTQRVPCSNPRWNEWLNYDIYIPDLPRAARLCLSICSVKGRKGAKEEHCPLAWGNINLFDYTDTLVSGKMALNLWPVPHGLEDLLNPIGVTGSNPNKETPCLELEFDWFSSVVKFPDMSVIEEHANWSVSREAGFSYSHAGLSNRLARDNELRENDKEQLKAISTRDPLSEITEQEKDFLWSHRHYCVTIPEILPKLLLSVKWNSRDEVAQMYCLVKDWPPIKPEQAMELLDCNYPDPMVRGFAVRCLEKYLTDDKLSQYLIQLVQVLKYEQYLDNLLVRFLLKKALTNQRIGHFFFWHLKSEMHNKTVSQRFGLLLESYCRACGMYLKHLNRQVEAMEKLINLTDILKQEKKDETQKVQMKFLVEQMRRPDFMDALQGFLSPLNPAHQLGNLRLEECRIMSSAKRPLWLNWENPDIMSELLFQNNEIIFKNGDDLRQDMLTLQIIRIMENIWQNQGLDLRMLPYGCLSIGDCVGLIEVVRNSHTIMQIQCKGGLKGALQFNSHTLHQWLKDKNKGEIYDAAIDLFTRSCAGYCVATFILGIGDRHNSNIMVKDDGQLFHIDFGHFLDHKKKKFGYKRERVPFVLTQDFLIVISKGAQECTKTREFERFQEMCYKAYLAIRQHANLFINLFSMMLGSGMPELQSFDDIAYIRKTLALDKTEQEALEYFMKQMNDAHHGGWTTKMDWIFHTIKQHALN
Details: not given
Here is the method: Inhibition of PI3K enzyme activity is measured in a microtiter plate-based fluorescence polarization (FP) assay.
As a reminder, the IC50 is the concentration at which inhibition is half-maximal. A higher IC50 goes with weaker potency. Molecule `COC[C@H]1OC(=O)C(=CN2CCC(C(=O)O)CC2)C2C(=O)C(=O)C3=C([C@H](OC(C)=O)C[C@@]4(C)C3CC[C@@H]4O)[C@]21C` (stereo partly drawn) [1-{[(2R,3S,6E,14S,15S,17R)-17-(acetyloxy)-8,14-dihydroxy-3-(methoxymethyl)-2,15-dimethyl-5,9-dioxo-4-oxatetracyclo[8.7.0.0^{2,7}.0^{11,15}]heptadeca-1(10),7-dien-6-ylidene]methyl}piperidine-4-carboxylic acid] yielded an IC50 of 33 nM.

In turn, `COC[C@H]1OC(=O)C(=CN(C)CCCC(=O)O)C2C(=O)C(=O)C3=C([C@H](OC(C)=O)C[C@@]4(C)C3CC[C@@H]4O)[C@]21C` (stereo partly drawn) [4-({[(2R,3S,6E,14S,15S,17R)-17-(acetyloxy)-8,14-dihydroxy-3-(methoxymethyl)-2,15-dimethyl-5,9-dioxo-4-oxatetracyclo[8.7.0.0^{2,7}.0^{11,15}]heptadeca-1(10),7-dien-6-ylidene]methyl}(methyl)amino)butanoic acid] gave an IC50 of 193 nM.

For `COC[C@H]1OC(=O)C(=CN2CCN(CCCN(C)C)CC2)C2C(=O)C(=O)C3=C([C@H](OC(C)=O)C[C@@]4(C)C3CC[C@@H]4O)[C@]21C` (stereo partly drawn) [(2R,3S,6E,14S,15S,17R)-6-({4-[3-(dimethylamino)propyl]piperazin-1-yl}methylidene)-8,14-dihydroxy-3-(methoxymethyl)-2,15-dimethyl-5,9-dioxo-4-oxatetracyclo[8.7.0.0^{2,7}.0^{11,15}]heptadeca-1(10),7-dien-17-yl acetate], the IC50 is 38 nM.

In the case of `CCN(C=C1C(=O)O[C@H](COC)[C@]2(C)C3=C(C(=O)C(=O)C12)C1CC[C@H](O)[C@@]1(C)C[C@H]3OC(C)=O)CCN(CC)CC` (stereo partly drawn) [(2R,3S,6E,14S,15S,17R)-6-({[2-(diethylamino)ethyl](ethyl)amino}methylidene)-8,14-dihydroxy-3-(methoxymethyl)-2,15-dimethyl-5,9-dioxo-4-oxatetracyclo[8.7.0.0^{2,7}.0^{11,15}]heptadeca-1(10),7-dien-17-yl acetate], the IC50 is 24 nM.

Regarding `CCN(CC)CCN(C)C=C1C(=O)O[C@H](COC)[C@]2(C)C3=C(C(=O)C(=O)C12)C1CC[C@H](O)[C@@]1(C)C[C@H]3OC(C)=O` (stereo partly drawn) [(2R,3S,6E,14S,15S,17R)-6-({[2-(diethylamino)ethyl](methyl)amino}methylidene)-8,14-dihydroxy-3-(methoxymethyl)-2,15-dimethyl-5,9-dioxo-4-oxatetracyclo[8.7.0.0^{2,7}.0^{11,15}]heptadeca-1(10),7-dien-17-yl acetate], the IC50 was determined as 50 nM.

`CCN(C=C1C(=O)O[C@H](COC)[C@]2(C)C3=C(C(=O)C(=O)C12)C1CC[C@H](O)[C@@]1(C)C[C@H]3OC(C)=O)CCN(C)C` (stereo partly drawn) [(2R,3S,6E,14S,15S,17R)-6-({[2-(dimethylamino)ethyl](ethyl)amino}methylidene)-8,14-dihydroxy-3-(methoxymethyl)-2,15-dimethyl-5,9-dioxo-4-oxatetracyclo[8.7.0.0^{2,7}.0^{11,15}]heptadeca-1(10),7-dien-17-yl acetate] gave an IC50 of 5 nM.

For `COC[C@H]1OC(=O)C(=CN(C)CCN(C)C)C2C(=O)C(=O)C3=C([C@H](OC(C)=O)C[C@@]4(C)C3CC[C@@H]4O)[C@]21C` (stereo partly drawn) [(2R,3S,6E,14S,15S,17R)-6-({[2-(dimethylamino)ethyl](methyl)amino}methylidene)-8,14-dihydroxy-3-(methoxymethyl)-2,15-dimethyl-5,9-dioxo-4-oxatetracyclo[8.7.0.0^{2,7}.0^{11,15}]heptadeca-1(10),7-dien-17-yl acetate], the midpoint of inhibition, the IC50, lay at 8.4 nM.

The same assay, now with this note: pH 7.5; 22 °C.
For `COC[C@H]1OC(=O)c2coc3c2[C@@]1(C)C1=C(C3=O)C2CC[C@H](O)[C@@]2(C)C[C@H]1OC(C)=O` (stereo partly drawn) [(1R,3R,5S,6S,18S)-6-hydroxy-18-(methoxymethyl)-1,5-dimethyl-11,16-dioxo-13,17-dioxapentacyclo[10.6.1.0^{2,10}.0^{5,9}.0^{15,19}]nonadeca-2(10),12(19),14-trien-3-yl acetate], it took 2.7 nM to reach half-maximal inhibition (IC50).
